In patent US20110183999A1, “NOVEL POLYMORPHIC FORMS OF METHYL CARBAMATE” (BAYER SCHERING PHARMA AKTIENGESELLSCHAFT, priority 2009, published 2011):

What was measured:
[1] = Thermogravimetry (TGA) mass loss; assay type: physicochemical; settings: heating rate 10 Kmin^−1, open platinum crucibles, nitrogen purge
Protocol: The TGA measurements were carried out using TGA7 and Pyris-1-TGA thermobalances from Perkin-Elmer using a heating rate of 10 Kmin^−1. The measurements were carried out in open platinum crucibles, the purge gas used was nitrogen. There was no sample preparation.

[2] = Thermodynamic and storage stability of the solid form; assay type: physicochemical; settings: also after processing to suspensions

Mass loss [1] | Stability of the solid form (thermodynamic / storage) ([2]; listed as mesomorphous form) | Compound | Stability of the solid form (thermodynamic / storage) [2]
<0.5 % by weight | – | COC(=O)Nc1c(N)nc(-c2nn(Cc3ccccc3F)c3ncccc23)nc1N [modification III, methyl {4,6-diamino-2-[1-(2-fluorobenzyl)-1H-pyrazolo[3,4-b]pyridin-3-yl]pyrimidin-5-yl}carbamate] | –
<0.5 % by weight | – | COC(=O)Nc1c(N)nc(-c2nn(Cc3ccccc3F)c3ncccc23)nc1N [modification II, methyl {4,6-diamino-2-[1-(2-fluorobenzyl)-1H-pyrazolo[3,4-b]pyridin-3-yl]pyrimidin-5-yl}carbamate] | –
<1 % by weight | – | COC(=O)Nc1c(N)nc(-c2nn(Cc3ccccc3F)c3ncccc23)nc1N [modification IV, methyl {4,6-diamino-2-[1-(2-fluorobenzyl)-1H-pyrazolo[3,4-b]pyridin-3-yl]pyrimidin-5-yl}carbamate] | –

Continued, compound first:

Compound | Mass loss [1] | Stability of the solid form (thermodynamic / storage) ([2]; listed as mesomorphous form) | Stability of the solid form (thermodynamic / storage) [2]
COC(=O)Nc1c(N)nc(-c2nn(Cc3ccccc3F)c3ncccc23)nc1N [modification I, methyl {4,6-diamino-2-[1-(2-fluorobenzyl)-1H-pyrazolo[3,4-b]pyridin-3-yl]pyrimidin-5-yl}-carbamate] | <0.5 % by weight | – | thermodynamically stable and storage-stable even after processing to suspensions
COC(=O)Nc1c(N)nc(-c2nn(Cc3ccccc3F)c3ncccc23)nc1N [amorphous, methyl {4,6-diamino-2-[1-(2-fluorobenzyl)-1H-pyrazolo[3,4-b]pyridin-3-yl]pyrimidin-5-yl}carbamate] | about 10 % by weight | – | –
COC(=O)Nc1c(N)nc(-c2nn(Cc3ccccc3F)c3ncccc23)nc1N [mesomorphous, Methyl {4,6-diamino-2-[1-(2-fluorobenzyl)-1H-pyrazolo[3,4-b]pyridin-3-yl]pyrimidin-5-yl}-carbamate, reference compound] | about 8 % by weight | metastable | –
